The values below come from patent US20240166658A1, “PORPHYRIN DERIVATIVES AND USES THEREOF” (University of Tasmania, priority 2021, published 2024).

Data set [1] is described as follows: Preliminary binding study of urea linked host, UV-Vis. The conditions noted are these: dichloromethane. The source says: However, these colorimetric changes were weaker than that observed with the amide equivalent, likely due to the formation of an insoluble precipitate upon binding. Binding of the urea linked porphyrin host with PFOA and PFOS was also confirmed by ^19F NMR spectra (FIG. 7).

Another data set in a line: Aqueous extraction tests. The conditions noted are these: PFOA 5.5 × 10^−4 M in water (~228 ppm), volume 1:1. How it is done: Aqueous solutions of PFOA were prepared and combined with an organic phase of sensor molecule (9) in dichloromethane. Colour change observations at various sensor concentrations are described in Table 12.
Data set [2] in a line: UV-Vis host-guest titration, association constant. Format: binding. The conditions noted are these: short, medium and long chain sensor molecules with PFOA. How it is done:
Path length of the quartz cell was 1 cm. For UV-vis titrations, a stock solution of host was prepared (2.2×10^−3 M) in dichloromethane (DCM) and serially diluted to the required concentrations. Working solutions of tetrabutylammonium (TBA) anion salts or guest molecules were prepared in the same manner Host−guest titrations used solutions of guest prepared in the working concentration of host solution, according to the procedure of Thordarson, 2011.
UV-vis spectroscopic host−guest titrations were performed in accordance with the methodologies of Thordarson, 2011. Solutions of host in dichloromethane were prepared. Solutions of guest were then prepared in the host solution. Aliquots of guest in host solution were added to host solution and sequentially analysed until a known molar equivalent of guest was added. The amount of guest added per aliquot was ascertained by a preliminary screening experiment; strong association constants required smaller molar equivalents so more information could be collected. […] The inverse is true for weaker binding interactions. Molar equivalents between 0.1-5 typically provided adequate information for modelling. The data was then used to simulate binding isotherms using www.supramolecular.org (Hibbert and Thordarson, 2016). The data was fitted to 1:1, 1:2 and 2:1 equilibria making no assumptions about the cooperativity of the binding interactions and modelled using different algorithms. These experiments mainly used the Nelder-Mead (Simplex) method.
UV-Vis spectroscopy binding studies were used to determine the association constant for the host (9)−PFOA complex.
A host solution of host (9) in dichloromethane was monitored using UV-Vis analysis as 0.5-10 equivalents of each PFAS was added. […] The data was processed using Bindfit isotherm simulators using both Nelder-Mead and L-BFGS-B methods (Thordarson, 2011).
To highlight any potential binding preferences across the PFCAs from the host molecules, triplicates of host−guest addition titrations were performed using host (9) and the TBA salts of the nine different deprotonated PFCAs.

Data set [3] in a line: PFCA guest response screening (RGB analysis, UV-Vis). How it is done:
A Puluz® 20 cm portable light tent with moderate and dispersed white LED lighting was used to photograph samples using an iPhone 6S plus camera on a fixed tripod. The automatic flash settings were disabled so there was no reflective interference on the sample vials. Samples that were being directly compared were photographed together to ensure lighting conditions and settings were consistent. The photographs were analysed using ImageJ software according to the procedure of Gallagher, 2014b. Multiple RGB values were chosen from areas of each sample at random to provide an “average” RGB value (Menesatti et al., 2012; Gallagher, 2014a; Phuangsaijai et al., 2021). Those RGB values were used to produce an artificial colour tile for visual comparison, or parameterized for modelling.
To quantify a colour difference, RGB values were transformed within the CIELab colour space. The difference, expressed as ΔE, was determined by measuring the relative distance between two colours. The numeric ΔE value can be used to predict how the two colours are perceived by a standard observer; a ΔE>2 is considered the minimum value to achieve a “just noticeable difference” (JND) (Table 1), which is the smallest difference required for an untrained observer to be able to determine two colours as being different (Castillo et al., 2021).
(§1) Experiments were performed at concentrations that could be monitored by the naked eye for practical sensing of PFAS in the field. Complexes of hosts (9), (11) and (12) were formed with the nine different perfluorocarboxylic acids (PFCAs) shown in Table 2 above and the colours of each host−PFCA complex were photographed in a lightbox and analysed using ImageJ software RGB analysis. Pixels of the solution were chosen at random to provide an RGB value. Multiple RGB values were recorded for each host−PFCA solution, and an average colour can be produced. From those values an RGB parameter was used to give a response value for modelling (Tahir et al., 2016).
(§2) After preliminary screenings, UV-Vis spectra were collected before and after the addition of 1 molar equivalent of each PFCA for each host, and the degree of complexation was noted by shifts in the Soret bands and formation of a peak at ca. 650 nm. To eliminate dilution effects, PFCA guest solutions were prepared in the equivalent concentration of host. If there was a notable host−guest interaction for a particular PFCA, the host−guest binding was investigated with more rigorous UV-Vis experiments, binding studies, and further colour analyses. Throughout these investigations, PFOA was considered the “average” PFCA both because of its position in the range of PFCA sizes and because its prevalence is often an indication of broader PFAS contamination. In any experiment where binding was further investigated for a particular PFCA, it was typically replicated with PFOA for comparison.

Data set [4] can be described thus: PFCA guest response across the nine PFCAs (UV-Vis, RGB, one-way ANOVA variance). The conditions noted are these: dichloromethane. How it is done: as §1, §2
One-way factorial ANOVA was used to examine the dependence (or independence) of two or more factors affecting the dependent variable concurrently, in the present case the change in absorption, or the change in RGB response across the tested PFCAs, or across the different hosts. This analysis was used to determine the variance in the responses of each host across the different PFCAs. […]

Data set [5] in a line: Colorimetric calibration chart, RGB response to known PFOA concentrations. The conditions noted are these: PFOA 0.7 ppm, dichloromethane. How it is done: The host molecules were combined with known concentrations of PFOA to provide RGB colour responses, which were used to create a colorimetric calibration chart that could be trialled as an indicator for estimating the total concentration of a range of any PFCAs. Solutions of each host molecule (1.00×10^−5 M) were prepared in dichloromethane. Solutions of PFOA in dichloromethane were prepared across a range of concentrations (0→16 ppm, 4.00×10^−5 M). Each host (2 mL) was combined with each PFOA concentration (1 mL, final concentration 0→1.33×10^−5 M) and photographed under equivalent lighting conditions. The average colour of each solution was then found using ImageJ RGB analysis, and a colour chart was produced.
For this reason, parametrization of the RGB values can be useful for interpreting results. The RGB response parameter can be calculated using the RGB values of the “blank” host solution (Šafranko et al., 2019) and the effective intensities of the individual RGB values of a sample (Tahir et al., 2016):
Here, H, indicates the values for the host solution, and S, indicates the response for a sample containing a PFCA, so that ΔR, ΔG, and ΔB give the colour differences. The RGB parameter is the response due to the relative difference in the RGB intensities:
The RGB values collected for each host with a range of known concentrations of PFOA in dichloromethane were parameterized and used to determine a relationship between concentration of analyte and RGB response values. […] The relationship between RGB response values and concentrations of PFOA could now be tested for accuracy in determining the concentration of any PFCA.

Data set [6] in a line: 1H NMR titration with GenX in CDCl3. As to conditions: host 6.85×10^−4 M in CDCl3, 20 μL aliquots of guest. Format: binding.
For data set [7] the following is noted: Rodea-Palomares et al., 2012; cited from earlier work.

As to `O=C(NC(=O)C(F)(F)C(F)(F)C(F)(F)C(F)(F)C(F)(F)C(F)(F)C(F)(F)F)Nc1ccccc1-c1c2nc(c(-c3ccccc3NC(=O)NC(=O)C(F)(F)C(F)(F)C(F)(F)C(F)(F)C(F)(F)C(F)(F)C(F)(F)F)c3ccc([nH]3)c(-c3ccccc3NC(=O)NC(=O)C(F)(F)C(F)(F)C(F)(F)C(F)(F)C(F)(F)C(F)(F)C(F)(F)F)c3nc(c(-c4ccccc4NC(=O)NC(=O)C(F)(F)C(F)(F)C(F)(F)C(F)(F)C(F)(F)C(F)(F)C(F)(F)F)c4ccc1[nH]4)C=C3)C=C2` [host (10), 5,10,15,20-tetra-(2-ureaphenyl-pentadecafluoro-octanoyl) porphyrin], the “colour change by UV-Vis spectrophotometric analysis” value in data set [1] (addition of PFOA) and in data set [1] (addition of PFOS) was “discernible colour change” throughout. Besides, the Observations result in the data set “Aqueous extraction tests” (sensor 1.1 × 10^−6 M in DCM, H:G 1:500) is given as “Some colour change,”; in the data set “Aqueous extraction tests” (sensor 2.2 × 10^−3 M in DCM, H:G 4:1), “Strong colour change”; in the data set “Aqueous extraction tests” (sensor 2.2 × 10^−4 M in DCM, H:G 2:5) it was “Strong colour change”; in the data set “Aqueous extraction tests” (sensor 2.2 × 10^−5 M in DCM, H:G 1:25) it was “Strong colour change”.

As for `O=C(Nc1ccccc1-c1c2nc(c(-c3ccccc3NC(=O)C(F)(F)C(F)(F)C(F)(F)F)c3ccc([nH]3)c(-c3ccccc3NC(=O)C(F)(F)C(F)(F)C(F)(F)F)c3nc(c(-c4ccccc4NC(=O)C(F)(F)C(F)(F)C(F)(F)F)c4ccc1[nH]4)C=C3)C=C2)C(F)(F)C(F)(F)C(F)(F)F` [host (11), α,α,α,α-5,10,15,20-tetra(2-(heptafluorobutanoylamino)phenyl) porphyrin], in data set [2], the K is 1.19e+06 M⁻¹. Moreover, the “Absorbance @ 650 nm” value worked out at 0.113 in data set [3] (host + one equivalent PFBA in dichloromethane); 0.0469 in data set [3] (host + one equivalent PFDA in dichloromethane); 0.0519 in data set [3] (host + one equivalent PFDoDA in dichloromethane); 0.1009 in data set [3] (host + one equivalent PFHpA in dichloromethane); 0.0967 in data set [3] (host + one equivalent PFHxA in dichloromethane); 0.0473 in data set [3] (host + one equivalent PFNA in dichloromethane). Moreover, the “Absorbance @ 650 nm” value in data set [3] (host + one equivalent PFOA in dichloromethane) was 0.0977; in data set [3] (host + one equivalent PFPeA in dichloromethane), 0.1125; in data set [3] (host + one equivalent PFUnDA in dichloromethane) it was 0.0475. The ΔEHost-PFCA in data set [3] (host vs host + PFBA) amounted to 45.9; in data set [3] (host vs host + PFDA), 27.0; in data set [3] (host vs host + PFDoDA), 27.2; in data set [3] (host vs host + PFHpA), 43.2; in data set [3] (host vs host + PFHxA) it was 44.4; in data set [3] (host vs host + PFNA), 26.8. For the same compound, the ΔEHost-PFCA was found to be 40.6 in data set [3] (host vs host + PFOA), 45.8 in data set [3] (host vs host + PFPeA) and 30.5 in data set [3] (host vs host + PFUnDA). Moreover, the “colorimetric response to all nine PFCAs” value in data set [4] was “strong colorimetric response”. The “ΔE between host and lowest PFOA concentration” value in data set [5] is on record as 4. The “1H NMR response to addition of GenX” value in data set [6] is on record as “showed shifts”.

As to `O=C(O)C(F)(F)C(F)(F)C(F)(F)C(F)(F)C(F)(F)C(F)(F)C(F)(F)F` [PFOA, Perfluorooctanoic acid], in data set [7], the logKo/w entry was “ca. 6.44”.
